# Data taken from patent US20110269680A1 (PANACEA BIOTEC LIMITED, priority 2008, published 2011).
# How the values were obtained:
# db/db mice = experiment: Anti-diabetic activity of peptide in db/db mice; assay type: in vivo; conditions: 25 nmol/kg daily i.p., versus saline
# Protocol: Animals of two different age groups (6-8 and 10-12 weeks old db/db mice) were included in this study. 6-8 week old mice were chosen as pre-diabetic mice and 10-12 week old as the full-diabetic mice. The preventive effect of peptide of Seq. ID No. 01 on the progression of diabetes in pre-diabetic mice was examined. The effect of peptide of Seq. ID No. 01 in full-diabetic mice was also studied. […] Blood glucose levels were measured on day 0, 14, 28 and 42. Test peptide of Seq ID No. 01 was injected i.p. according to body weight and the feed was removed. Mice were not fed till 4 hrs following injection of the peptide on the day of blood sample testing. Normal chow was given after the 4 hr time point. […] Test compound/vehicle (saline solution i.e. control negative) to be administered at 0 hr.
# C57/BL6 male mice = experiment: OGTT and dose response effect of peptide of Seq ID No. 01; assay type: in vivo
# Protocol: C57/BL6 male mice were fasted for 6 hrs. After 6 h of fasting, blood was drawn from a small tail clip for glucose level determination. […] Glucose was given orally at the ratio 1 mg/g body wt. per mouse 5 min after the administration of peptide. Blood glucose levels were determined at different time intervals i.e. at 0, 15, 30, 60, and 120 min during a period of 2 hours using a portable glucometer. The saline solution was used as control negative in the experiment.
# NEP 24.11 = target: T1, NEP 24.11 (Homo sapiens, UniProt P08473); experiment: NEP 24.11 resistant (degradation) assay; assay type: in vitro ADME; conditions: pH 7.4
# T1 construct: purchased Calbiochem
# T1 sequence (P08473 whole entry): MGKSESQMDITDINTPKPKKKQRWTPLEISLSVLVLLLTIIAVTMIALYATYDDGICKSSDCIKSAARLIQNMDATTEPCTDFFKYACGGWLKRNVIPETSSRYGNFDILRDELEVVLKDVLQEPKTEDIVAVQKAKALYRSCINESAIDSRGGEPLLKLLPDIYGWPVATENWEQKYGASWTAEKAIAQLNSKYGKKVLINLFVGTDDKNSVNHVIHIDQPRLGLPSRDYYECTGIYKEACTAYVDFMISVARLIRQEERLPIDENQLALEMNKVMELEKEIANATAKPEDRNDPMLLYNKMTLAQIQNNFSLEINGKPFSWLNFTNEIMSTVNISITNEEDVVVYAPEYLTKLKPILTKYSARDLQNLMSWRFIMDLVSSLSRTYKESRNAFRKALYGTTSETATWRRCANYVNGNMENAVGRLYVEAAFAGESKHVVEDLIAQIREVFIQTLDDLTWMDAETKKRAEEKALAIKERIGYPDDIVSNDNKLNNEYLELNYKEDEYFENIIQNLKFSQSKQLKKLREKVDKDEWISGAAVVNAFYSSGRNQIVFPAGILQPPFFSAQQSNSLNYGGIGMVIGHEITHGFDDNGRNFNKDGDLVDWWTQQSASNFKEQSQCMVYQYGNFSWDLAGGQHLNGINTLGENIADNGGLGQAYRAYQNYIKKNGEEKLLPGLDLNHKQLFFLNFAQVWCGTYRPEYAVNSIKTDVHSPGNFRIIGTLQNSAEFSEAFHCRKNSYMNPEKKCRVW
# Protocol: The aliquots were analyzed for the amount of undegraded peptide concentration at different time intervals using RP-HPLC by peak area integration. T1/2 of each peptide was determined from the graph plotted between peak area of undegraded peptide vs time.
# DPP-IV = target: T2, DPP-IV (Homo sapiens, UniProt P27487); experiment: DPP-IV resistant assay; assay type: in vitro ADME
# T2 construct: purchased Sigma-Aldrich
# T2 sequence (P27487 whole entry, species assumed): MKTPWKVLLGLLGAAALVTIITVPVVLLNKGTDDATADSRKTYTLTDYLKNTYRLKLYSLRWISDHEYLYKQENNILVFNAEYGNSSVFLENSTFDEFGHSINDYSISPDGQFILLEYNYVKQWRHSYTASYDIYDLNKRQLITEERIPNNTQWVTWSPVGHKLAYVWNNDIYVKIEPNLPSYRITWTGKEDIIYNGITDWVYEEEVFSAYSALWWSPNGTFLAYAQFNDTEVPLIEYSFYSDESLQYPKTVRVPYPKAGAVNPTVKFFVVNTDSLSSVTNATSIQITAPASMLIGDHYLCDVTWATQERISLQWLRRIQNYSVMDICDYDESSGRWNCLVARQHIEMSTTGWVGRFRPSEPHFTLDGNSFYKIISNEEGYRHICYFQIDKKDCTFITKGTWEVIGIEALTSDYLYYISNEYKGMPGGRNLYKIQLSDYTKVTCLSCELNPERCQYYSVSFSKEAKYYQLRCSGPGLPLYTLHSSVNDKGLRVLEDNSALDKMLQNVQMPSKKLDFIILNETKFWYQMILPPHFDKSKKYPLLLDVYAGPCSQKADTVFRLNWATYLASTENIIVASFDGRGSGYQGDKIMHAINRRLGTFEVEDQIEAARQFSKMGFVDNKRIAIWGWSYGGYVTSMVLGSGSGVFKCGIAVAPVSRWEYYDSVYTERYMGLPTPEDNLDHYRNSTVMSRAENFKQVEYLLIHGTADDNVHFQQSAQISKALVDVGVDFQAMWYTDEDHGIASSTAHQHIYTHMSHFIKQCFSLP
# Protocol: 20 μM of peptides of the present invention (Sequence IDs—01, 02, 03, 04, 05, 06, 11, 12 and 13) were incubated with 60 mU/2 ml of DPP-IV (Sigma-Aldrich) enzyme at room temperature (22-24° C.) in 20 mM Tris HCl buffer, pH 8.0. The aliquots were analyzed for the amount of undegraded peptide concentration at different time intervals by RP-HPLC. The peak area integration was used to determine the amount of undegraded peptide (U.S. Pat. No. 7,067,488). T1/2 of each peptide was determined from the graph plotted between peak area of undegraded peptide vs. time. The peak area of DPP-IV untreated peptide in above mentioned buffer condition of same concentration was considered as time zero. […]
smiles,measurement,setting,value
CC[C@H](C)[C@H](NC(=O)[C@H](Cc1ccccc1)NC(=O)[C@H](CCC(=O)O)NC(=O)[C@H](CCCCN)NC(=O)[C@H](C)NC(=O)[C@H](C)NC(=O)[C@H](CCC(N)=O)NC(=O)CNC(=O)[C@H](CCC(=O)O)NC(=O)[C@H](CC(C)C)NC(=O)[C@H](Cc1ccc(O)cc1)NC(=O)[C@H](CO)NC(=O)[C@H](CO)NC(=O)[C@@H](NC(=O)[C@H](CC(=O)O)NC(=O)[C@H](CO)NC(=O)[C@@H](NC(=O)[C@H](Cc1ccccc1)NC(=O)[C@@H](NC(=O)CNC(=O)[C@H](CCC(=O)O)NC(=O)c1ccc(CNC(=O)[C@@H](N)Cc2c[nH]cn2)o1)[C@@H](C)O)[C@@H](C)O)C(C)C)C(=O)N[C@@H](C)C(=O)N[C@@H](Cc1c[nH]c2ccccc12)C(=O)N[C@@H](CC(C)C)C(=O)N[C@H](C(=O)N[C@@H](CCCCN)C(=O)NCC(=O)N[C@@H](CCCNC(=N)N)C(=O)NCC(N)=O)C(C)C [Seq ID No. 01],"blood glucose level, progression of diabetes","db/db mice; 6-8 weeks old db/db mice, 42 days",delayed the progression of diabetes as compared to control negative group
same,"blood glucose level, activity versus control negative","db/db mice; 10-12 weeks old db/db mice, 28 days",better activity as compared to control negative group
same,optimum dose,"C57/BL6 male mice; OGTT dose response, intraperitoneally",25 nmol/kg
same,"dose response, percent reduction in blood glucose (AUC0-60)","C57/BL6 male mice; OGTT, 100, 25, 10, 5 and 1 nmol/kg intraperitoneally, FIG. 11",no significant difference between 100 nmol and 25 nmol doses
same,half-life at 20 μM,NEP 24.11; buffer,29 h
same,"metabolised at 54 h, 20 μM",NEP 24.11; isolated enzyme neprilysin,92.6%
same,Percentage degradation in hrs,DPP-IV,25%
same,half-life at 20 μM,DPP-IV; pH 8,> 72 h
